Laboratory results from patent publication US20260022142A1, “MACROCYCLIC IMMUNOMODULATORS” (Bristol-Myers Squibb Company, priority 2022, published 2026).
Bridge positions count the residues as written; N and C are the ends. Square brackets hold non-standard residues; d marks the D form. Peptide text beside a SMILES is read from it. * marks the point of attachment. Phe(3-CF3) = N[C@@H](Cc1cccc(C(F)(F)F)c1)C(=O)O; Phe(4-COOH) = N[C@@H](Cc1ccc(C(=O)O)cc1)C(=O)O; Bip = N[C@@H](Cc1ccc(-c2ccccc2)cc1)C(=O)O; NH(CH2)14COOH = O=C(O)CCCCCCCCCCCCCCN*; Phe(3-Me) = Cc1cccc(C[C@H](N)C(=O)O)c1; Cha = N[C@@H](CC1CCCCC1)C(=O)O; Cit = NC(=O)NCCC[C@H](N)C(=O)O; PEG4 = NCCOCCOCCOCCOCCC(=O)O; Carboxymethyl = O=C(O)C*; Orn = NCCC[C@H](N)C(=O)O; Aun = NCCCCCCCCCCC(=O)O; Dab = NCC[C@H](N)C(=O)O; Dap = NC[C@H](N)C(=O)O

molecular target: T1, PD-1/PD-L1 interaction (PE-labeled human PD-L1-Ig binding to Jurkat cell line over-expressing human PD-1) (Homo sapiens, UniProt Q15116); assay: Jurkat-PD-1 Cell Binding High-Content Screening Assay (CBA); type: cell-based; conditions: Jurkat cell line over-expressing human PD-1; PE-labeled PD-L1-Ig 20 nM final; read-out: Jurkat hPD1-PDL1 IC50
T1 construct: expressed in transfected cells; host or cells: Jurkat
T1 sequence (Q15116 25-288): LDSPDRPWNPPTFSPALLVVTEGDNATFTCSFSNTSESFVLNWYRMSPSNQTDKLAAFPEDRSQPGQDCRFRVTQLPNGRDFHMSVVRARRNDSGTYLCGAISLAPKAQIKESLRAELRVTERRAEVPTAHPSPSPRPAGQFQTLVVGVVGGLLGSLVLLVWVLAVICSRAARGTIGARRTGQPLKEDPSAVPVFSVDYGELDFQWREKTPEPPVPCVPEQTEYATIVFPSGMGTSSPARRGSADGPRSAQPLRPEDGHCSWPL
Procedure, shortened: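 Jurkat cells stably over-expressing human PD-1 were seeded in DMEM with 10% fetal calf serum and pre-incubated with compound for 2 h at 37° C. PE-labeled human PD-L1-Ig was then added at 20 nM final for 1 hour, after which cells were fixed with paraformaldehyde, Hoechst-stained and imaged by high-content microscopy.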

IC50 [nM]	SMILES
5.2	Cc1cccc(C[C@@H]2NC(=O)[C@H](CC(=O)O)NC(=O)[C@H](Cc3ccc(OCC(=O)O)cc3)NC(=O)[C@H](CCCNC(=N)N)NC(=O)CSC[C@@H](C(=O)N[C@@H](CCN)C(=O)NCCCCCCCCCCC(=O)O)NC(=O)[C@H]([C@@H](C)O)NC(=O)[C@H](C(C)C)NC(=O)[C@H](CC3CCCCC3)NC(=O)[C@H](CCN)NC(=O)[C@@H](CC(C)C)NC(=O)[C@H](CCCN)NC(=O)[C@H](CCCNC(N)=O)NC(=O)[C@H](Cc3ccc(-c4ccccc4)cc3)NC(=O)[C@H](Cc3ccc(O)cc3)NC2=O)c1 [Compound 2833] ({CH2CO}-RY(Carboxymethyl)D[Phe(3-Me)]Y[Bip][Cit][Orn][dL][Dab][Cha]VTC[Dab][Aun]-OH; thioether N-14)
17.2	CC(C)C[C@H]1NC(=O)[C@H](CCCN)NC(=O)[C@H](C(C)C)NC(=O)[C@H](Cc2ccc(-c3ccccc3)cc2)NC(=O)[C@H](C(C)C)NC(=O)[C@H](Cc2c[nH]c3ccccc23)NC(=O)[C@H](CC(=O)O)NC(=O)[C@H](Cc2ccc(OCC(=O)O)cc2)NC(=O)[C@H](CN)NC(=O)CSC[C@@H](C(=O)N[C@@H](CCC(=O)O)C(=O)NCC(=O)NCCCCCCCCCCC(=O)O)NC(=O)[C@H]([C@@H](C)O)NC(=O)[C@H](C(C)C)NC(=O)[C@H](CC2CCCCC2)NC(=O)[C@H](Cc2cnc[nH]2)NC1=O [Compound 1094] ({CH2CO}-[Dap]Y(Carboxymethyl)DWV[Bip]V[Orn][dL]H[Cha]VTCEG[Aun]-OH; thioether N-14)
89.8	Cc1cccc(C[C@@H]2NC(=O)[C@H](CC(=O)O)NC(=O)[C@H](Cc3ccc(OCC(=O)O)cc3)NC(=O)[C@H](Cc3ccc(OCC(=O)O)cc3)NC(=O)CSC[C@@H](C(=O)N[C@@H](CCN)C(=O)NCCCCCCCCCCC(=O)O)NC(=O)[C@H](CO)NC(=O)[C@H](C(C)C)NC(=O)[C@H](CC3CCCCC3)NC(=O)[C@H](CCN)NC(=O)[C@@H](CC(C)C)NC(=O)[C@H](CCCN)NC(=O)[C@H](C(C)C)NC(=O)[C@H](Cc3ccc(-c4ccccc4)cc3)NC(=O)[C@H](CC(C)C)NC2=O)c1 [Compound 1060] ({CH2CO}-Y(Carboxymethyl)Y(Carboxymethyl)D[Phe(3-Me)]L[Bip]V[Orn][dL][Dab][Cha]VSC[Dab][Aun]-OH; thioether N-14)
8.8	CC(=O)NCCCC[C@@H]1NC(=O)[C@H](C(C)C)NC(=O)[C@H](CC2CCCCC2)NC(=O)[C@H](CCN)NC(=O)[C@@H](CC(C)C)NC(=O)[C@H](CCCN)NC(=O)[C@H](Cc2ccc(O)cc2)NC(=O)[C@H](Cc2ccc(-c3ccccc3)cc2)NC(=O)[C@H](C(C)C)NC(=O)[C@H](Cc2c[nH]c3ccccc23)NC(=O)[C@H](CC(=O)O)NC(=O)[C@H](Cc2ccc(OCC(=O)O)cc2)NC(=O)[C@H](CCCNC(=N)N)NC(=O)CSC[C@@H](C(=O)N[C@@H](CCN)C(=O)NCCCCCCCCCCC(=O)O)NC1=O [Compound 3391] ({CH2CO}-RY(Carboxymethyl)DWV[Bip]Y[Orn][dL][Dab][Cha]VK(Ac)C[Dab][Aun]-OH; thioether N-14)
597	CC(C)C[C@@H]1NC(=O)CSC[C@@H](C(=O)N[C@@H](CCN)C(=O)NCCOCCOCCOCCOCCC(=O)NCCCCCCCCCCCCCCC(=O)O)NC(=O)[C@H](CCC(=O)O)NC(=O)[C@H](C(C)C)NC(=O)[C@H](CC2CCCCC2)NC(=O)[C@H](CCN)NC(=O)[C@@H](CC(C)C)NC(=O)[C@H](CCCN)NC(=O)[C@H](Cc2ccc(C(=O)O)cc2)NC(=O)[C@H](Cc2ccc(-c3ccccc3)cc2)NC(=O)[C@H](Cc2ccc(C(=O)O)cc2)NC(=O)[C@H](Cc2cccc(C(F)(F)F)c2)NC(=O)[C@H](CC(=O)O)NC(=O)[C@H](Cc2ccc(C(=O)O)cc2)NC1=O [Compound 3910] ({CH2CO}-L[Phe(4-COOH)]D[Phe(3-CF3)][Phe(4-COOH)][Bip][Phe(4-COOH)][Orn][dL][Dab][Cha]VEC[Dab][PEG4]-{NH(CH2)14COOH}; thioether N-14)
